Where “and” joins values, the source holds several entries; their conditions need not be identical. Equal entries are not always repeated.

One assay deals with T1, BTK^T474I-C481S (Homo sapiens, UniProt Q06187+Q13490, C481S/T474I).
T1 construct: we used a full-length BTK (aa1-659) with a C terminal Tobacco Etch Virus protease (TEV) site; expressed in transfected cells; host or cells: Expi293 (HEK293)
In words: Expi293 dose-dependent degradation of BTK double mutant. Type of assay: cell-based. The following applies: Expi293 with cIAP1^FL. On the procedure:
(§1) Gibco Expi293 cell line Transfection Kit (Cat.# A14524) was cultured according to the manufacturers conditions. Cells were grown at 37 °C with 5% CO2 to 4 × 10^6 cells/mL using an orbital shaker set to 95 RPM. Next cells were split to 2 × 10^6 cells/mL and transfected with plasmid DNA at a 1 µg/mL final concentration in Optimem (Gibco 31985070) using the Expifectamine 293 transfection reagent according to manufacturer’s conditions. After approximately 18 h, enhancers 1 and 2 (provided with kit). Viability was typically about 85%. When cIAP1^FL was transfected, it was detected via α-cIAP1 antibody there was typically some autoubiquitination detected, and thus often appeared as a laddered or smeared band via western blotting. When BTK^FL variants were transfected, they were detected using anti-BTK antibody (D3H5).
For dose-dependent degradation assays, cells were plated in a 24-well format and placed on a separate orbital shaker set to 115 RPM. […] Clarified lysate was harvested and quantified using a Pierce BCA Assay Kit (Cat. #23225), and 20 µg of the sample was loaded into a 4–15% Criterion TGX gel (Bio-Rad, 5678085) and transferred to a nitrocellulose membrane (Life Technologies Cat. #IB23001) using an iBlot 2 (Life Technologies Cat. #IB21001). Proteins were detected using an iBind system (Life Technologies SLF2020). […]

Another assay has as its target T2, BTK^FL-F559A (Homo sapiens, UniProt Q06187+Q13490, F559A).
T2 construct: we used a full-length BTK (aa1-659) with a C terminal Tobacco Etch Virus protease (TEV) site; expressed in transfected cells; host or cells: Expi293 (HEK293)
In words: Expi293 dose-dependent degradation of BTK^FL-F559A. The note with it: for BTK^FL-F559A blot signal normalized to DMSO: replicates. Type of assay: cell-based. On the procedure: as §1
For dose-dependent degradation assays, cells were plated in a 24-well format and placed on a separate orbital shaker set to 115 RPM. Each well was treated with prescribed compound concentrations in the same manner as with THP-1 cells, with the exception of using Expifectamine 293 growth medium in place of RPMI 1640 complete media. After approximately 18 h post-treatment cells were harvested, centrifuged at 100 x g at 4 °C, washed twice with ice-cold PBS, and resuspended in RIPA buffer supplemented with a Roche protease inhibitor cocktail (Cat. #11873580001), and benzonase nuclease (Millipore-Sigma Cat# 70664). Each sample was incubated on ice for 30 min with periodic vortexing and centrifuged at 15 Kxg for 20 min. Clarified lysate was harvested and quantified using a Pierce BCA Assay Kit (Cat. #23225), and 20 µg of the sample was loaded into a 4–15% Criterion TGX gel (Bio-Rad, 5678085) and transferred to a nitrocellulose membrane (Life Technologies Cat. #IB23001) using an iBlot 2 (Life Technologies Cat. #IB21001). Proteins were detected using an iBind system (Life Technologies SLF2020). For BTK^T474I and BTK^T474I/C481S we inferred ligand entry into cells via the autoubiquitination and dose-dependent degradation of cIAP1^FL,[58].
Dose-dependent Degradation was analyzed using ImageJ (NIH, version 1.50i). Densiometric analysis was performed, normalized to DMSO signal, and analyzed using GraphPad Prism (Version 9.0.0 (121)). Non-linear fit one-phase decay analysis was used to obtain DC50 values. When we observed a hook effect, some points were excluded as part of the fit. In Supplementary Fig. 7B the complete curve was fit using GraphPad Prism non-linear regression bell-shaped curve where X is the concentration. However, using this method we were unable to obtain stable values for our DC50. SEM error was plotted for each point. When determining statistically significant differences, we used a two-sided student’s unpaired T-Test.

T2 sequence (Q06187 whole entry F559A, the tested form may be a part): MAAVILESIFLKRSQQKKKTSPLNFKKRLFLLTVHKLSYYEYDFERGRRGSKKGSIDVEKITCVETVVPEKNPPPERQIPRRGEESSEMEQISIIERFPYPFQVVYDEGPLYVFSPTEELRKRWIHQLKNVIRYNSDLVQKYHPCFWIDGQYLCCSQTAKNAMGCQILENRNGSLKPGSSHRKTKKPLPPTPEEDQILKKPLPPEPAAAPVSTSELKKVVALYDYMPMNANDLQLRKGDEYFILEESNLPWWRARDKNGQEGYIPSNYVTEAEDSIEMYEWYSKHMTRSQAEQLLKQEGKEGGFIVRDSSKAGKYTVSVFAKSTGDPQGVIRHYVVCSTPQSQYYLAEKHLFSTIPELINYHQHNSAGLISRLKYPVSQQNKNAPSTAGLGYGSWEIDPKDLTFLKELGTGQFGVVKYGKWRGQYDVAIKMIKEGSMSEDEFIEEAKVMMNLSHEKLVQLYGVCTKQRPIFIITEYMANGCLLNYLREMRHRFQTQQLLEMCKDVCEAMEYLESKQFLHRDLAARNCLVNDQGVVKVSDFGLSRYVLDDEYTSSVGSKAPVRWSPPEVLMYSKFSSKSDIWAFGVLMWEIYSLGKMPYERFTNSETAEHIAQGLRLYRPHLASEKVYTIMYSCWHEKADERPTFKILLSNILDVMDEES
T2 sequence (Q13490 whole entry, the tested form may be a part): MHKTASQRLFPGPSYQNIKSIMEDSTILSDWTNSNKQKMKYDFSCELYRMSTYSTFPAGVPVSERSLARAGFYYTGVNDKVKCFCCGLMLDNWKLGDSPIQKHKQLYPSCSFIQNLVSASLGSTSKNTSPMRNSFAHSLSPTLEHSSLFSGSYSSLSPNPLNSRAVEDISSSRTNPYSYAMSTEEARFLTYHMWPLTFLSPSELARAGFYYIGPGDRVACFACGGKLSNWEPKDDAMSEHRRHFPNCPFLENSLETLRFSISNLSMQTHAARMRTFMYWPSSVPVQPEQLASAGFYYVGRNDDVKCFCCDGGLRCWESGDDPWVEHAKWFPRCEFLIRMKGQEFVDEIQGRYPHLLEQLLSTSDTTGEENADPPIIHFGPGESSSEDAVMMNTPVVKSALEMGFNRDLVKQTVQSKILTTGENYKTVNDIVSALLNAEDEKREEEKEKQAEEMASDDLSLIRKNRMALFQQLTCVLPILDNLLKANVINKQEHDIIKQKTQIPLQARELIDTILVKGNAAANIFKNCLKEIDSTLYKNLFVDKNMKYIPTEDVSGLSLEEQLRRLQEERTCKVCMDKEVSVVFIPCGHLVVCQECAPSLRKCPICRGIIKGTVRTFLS
T1 sequence (Q06187 whole entry T474I/C481S, the tested form may be a part): as the sequence (Q06187 whole entry F559A, the tested form may be a part) above, with T474I, C481S, A559F counted along it
T1 sequence (Q13490 whole entry, the tested form may be a part): as the sequence (Q13490 whole entry, the tested form may be a part) above

Consider `CNC(C)C(=O)NC(C(=O)N1CC(NC(=O)COCCN2CCN(CC=CC(=O)N3CCCC(n4nc(-c5ccc(Oc6ccccc6)cc5)c5c(N)ncnc54)C3)CC2)CC1C(=O)NC1CCCc2ccccc21)C1CCCCC1` (stereo not drawn) [BCCov], for which, on BTK^T474I-C481S, the “degradation of BTK^T474I-C481S” value is listed as “loss of activity”. Further, the “BTK^FL-F559A blot signal normalized to DMSO” value on BTK^FL-F559A (0.00976562 uM) was 1.17 and 1.06 and 0.96; on BTK^FL-F559A (0.0195312 uM), 1.16 and 1.04 and 1.13; at BTK^FL-F559A (0.0390625 uM), 0.92 and 0.90 and 0.89; at BTK^FL-F559A (0.078125 uM), 0.58 (2×) and 0.71; on BTK^FL-F559A (0.15625 uM), 0.39 and 0.23 and 0.37; at BTK^FL-F559A (0.3125 uM) it was 0.25 and 0.12 and 0.28. The “BTK^FL-F559A blot signal normalized to DMSO” value is 0.23 and 0.10 and 0.24 on BTK^FL-F559A (0.625 uM); 0.22 and 0.0565 and 0.18 at BTK^FL-F559A (1.25 uM); 0.23 and 0.05 and 0.19 at BTK^FL-F559A (2.5 uM); 0.18 and 0.08 and 0.22 on BTK^FL-F559A (5 uM). Moreover, the “degradation of F559A mutant” value on BTK^FL-F559A (Expi293) was “retains potent cellular degradation”.

These data come from PMC9981747, “A covalent BTK ternary complex compatible with targeted protein degradation” (Nature Communications, 2023).
